Assay results published in patent US11407738B2 (Achillion Pharmaceuticals, Inc., priority 2015, dated 2022).

The compounds below were run against Human Factor D (Homo sapiens (Human), UniProt P00746) (assay: Human Factor D assay). Settings: Table 4; Factor D inhibition, substrate Z-L-Lys-SBzl.
Human Factor D, sequence (P00746 26-253): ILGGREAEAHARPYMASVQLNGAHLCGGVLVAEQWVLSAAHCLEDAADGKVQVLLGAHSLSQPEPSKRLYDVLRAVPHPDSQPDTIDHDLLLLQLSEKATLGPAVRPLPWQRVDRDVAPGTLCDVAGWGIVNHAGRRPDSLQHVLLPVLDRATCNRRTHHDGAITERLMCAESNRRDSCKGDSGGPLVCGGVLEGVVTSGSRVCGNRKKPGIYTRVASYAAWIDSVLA
Format: biochemical
Method in brief: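 Serum-purified human factor D (80 nM final) preincubated 5 min at room temperature with test compound in 50 mM Tris, 1M NaCl, pH 7.5. Z-L-Lys-SBzl substrate and DTNB then added, each at 100 μM final. IC50 from nonlinear regression of reaction rate against compound concentration.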
`Cc1ncc(-c2ccc3c(c2)c(C(=O)NS(C)(=O)=O)nn3CC(=O)N2C[C@H](F)C[C@H]2C(=O)Nc2cccc(Br)n2)cn1` [Compound 585, 1-(2-((2S,4R)-2-((6-bromopyridin-2-yl)carbamoyl)-4-fluoropyrrolidin-1-yl)-2-oxoethyl)-5-(2-methylpyrimidin-5-yl)-N-(methylsulfonyl)-1H-indazole-3-carboxamide] was tested, and the IC50 was greater than 10 µM.
With `Cc1ccc(-c2ccc3c(c2)c(C(N)=O)cn3CC(=O)N2CCC(F)CC[C@H]2C(=O)Nc2cccc(C)n2)cn1` (stereo partly drawn) [Compound 586, 1-(2-((2S)-5-Fluoro-2-((6-methylpyridin-2-yl)carbamoyl)azepan-1-yl)-2-oxoethyl)-5-(6-methylpyridin-3-yl)-1H-indole-3-carboxamide] the IC50 was greater than 10 µM.
Work on `Cc1cccc(NC(=O)[C@@H]2CCC(F)CCN2C(=O)Cn2cc(C(N)=O)c3cc(-c4ccc5c(c4)CC5)ccc32)n1` (stereo partly drawn) [Compound 587, 5-(1,2-Dihydrocyclobutabenzen-4-yl)-1-(2-((2S)-5-fluoro-2-(6-methylpyridin-2-ylcarbamoyl)azepan-1-yl)-2-oxoethyl)-1H-indole-3-carboxamide] yielded an IC50 greater than 10 µM.
Work on `Cc1cccc(NC(=O)[C@@H]2CCC(F)CCN2C(=O)Cn2cc(C(N)=O)c3cc(-c4cccnc4)ccc32)n1` (stereo partly drawn) [Compound 588, 1-(2-((2S)-5-Fluoro-2-((6-methylpyridin-2-yl)carbamoyl)azepan-1-yl)-2-oxoethyl)-5-(pyridin-3-yl)-1H-indole-3-carboxamide] yielded an IC50 greater than 10 µM.
Work on `Cc1cccc(NC(=O)[C@@H]2CCC(F)CCN2C(=O)Cn2cc(C(N)=O)c3cc(-c4ccc5c(c4)CCCC5)ccc32)n1` (stereo partly drawn) [Compound 589, 1-(2-((2S)-5-fluoro-2-((6-methylpyridin-2-yl)carbamoyl)azepan-1-yl)-2-oxoethyl)-5-(5,6,7,8-tetrahydronaphthalen-2-yl)-1H-indole-3-carboxamide] yielded an IC50 greater than 10 µM.
Work on `Cc1cccc(NC(=O)[C@@H]2CCC(F)CCN2C(=O)Cn2cc(C(N)=O)c3cc(-c4ccc(F)nc4)ccc32)n1` (stereo partly drawn) [Compound 590, 1-(2-((2S)-5-Fluoro-2-((6-methylpyridin-2-yl)carbamoyl)azepan-1-yl)-2-oxoethyl)-5-(6-fluoropyridin-3-yl)-1H-indole-3-carboxamide] yielded an IC50 greater than 10 µM.
For `Cc1cccc(NC(=O)[C@@H]2CCC(F)CCN2C(=O)Cn2cc(C(N)=O)c3cc(-c4cccc(C#N)c4)ccc32)n1` (stereo partly drawn) [Compound 591, 5-(3-Cyanophenyl)-1-(2-((2S)-5-fluoro-2-(6-methylpyridin-2-ylcarbamoyl)azepan-1-yl)-2-oxoethyl)-1H-indole-3-carboxamide], the IC50 was greater than 10 µM.
With `CC(=O)c1nn(CC(=O)N2C[C@H](F)C[C@H]2CC(=O)NO)c2ccc(-c3cnc(C)nc3)cc12` [Compound 592, 2-((2R,4R)-1-(2-(3-Acetyl-5-(2-methylpyrimidin-5-yl)-1H-indazol-1-yl)acetyl)-4-fluoropyrrolidin-2-yl)-N-hydroxyacetamide] the IC50 was greater than 10 µM.
In the case of `Cc1cccc(NC(=O)[C@@H]2CCC(F)CCN2C(=O)Cn2cc(C(N)=O)c3cc(-c4cnc5c(c4)CCC5)ccc32)n1` (stereo partly drawn) [Compound 593, 5-(6,7-Dihydro-5H-cyclopenta[b]pyridin-3-yl)-1-(2-((2S)-5-fluoro-2-((6-methylpyridin-2-yl)carbamoyl)azepan-1-yl)-2-oxoethyl)-1H-indole-3-carboxamide], the IC50 is reported as greater than 10 µM.
`Cc1cccc(NC(=O)[C@@H]2CCC(F)CCN2C(=O)Cn2cc(C(N)=O)c3cc(-c4ccc5ccccc5c4)ccc32)n1` (stereo partly drawn) [Compound 594, 1-(2-((2S)-5-Fluoro-2-((6-methylpyridin-2-yl)carbamoyl)azepan-1-yl)-2-oxoethyl)-5-(naphthaalen-2-yl)-1H-indole-3-carboxamide] gave an IC50 greater than 10 µM.
`Cc1cccc(NC(=O)[C@@H]2CCC(F)CCN2C(=O)Cn2cc(C(N)=O)c3cc(-c4ccc(N)nc4)ccc32)n1` (stereo partly drawn) [Compound 595, 5-(6-Aminopyridin-3-yl)-1-(2-((2S)-5-fluoro-2-((6-methylpyridin-2-yl)carbamoyl)azepan-1-yl)-2-oxoethyl)-1H-indole-3-carboxamide] was tested, and the IC50 was greater than 10 µM.
In the case of `COc1ccc(-c2ccc3c(c2)c(C(N)=O)cn3CC(=O)N2CCC(F)CC[C@H]2C(=O)Nc2cccc(C)n2)cn1` (stereo partly drawn) [Compound 596, 1-(2-((2S)-5-Fluoro-2-((6-methylpyridin-2-yl)carbamoyl)azepan-1-yl)-2-oxoethyl)-5-(6-methoxypyridin-3-yl)-1H-indole-3-carboxamide], the IC50 is reported as greater than 10 µM.
For `CC[C@H](C(=O)Nc1cccc(Br)n1)N(C)C(=O)Cn1nc(C(C)=O)c2cc(-c3cnc(C)nc3)ccc21` [Compound 597, (R)-2-(2-(3-acetyl-5-(2-methylpyrimidin-5-yl)-1H-indazol-1-yl)-N-methylacetamido)-N-(6-bromopyridin-2-yl)butanamide], the IC50 was greater than 10 µM.
In the case of `CC[C@@H](C(=O)Nc1cccc(Br)n1)N(C)C(=O)Cn1nc(C(C)=O)c2cc(-c3cnc(C)nc3)ccc21` [Compound 598, (S)-2-(2-(3-Acetyl-5-(2-methylpyrimidin-5-yl)-1H-indazol-1-yl)-N-methylacetamido)-N-(6-bromopyridin-2-yl)butanamide], the IC50 is reported as 1 to 10 µM.
With `CC[C@@H](NC(=O)Cn1nc(C(C)=O)c2cc(-c3cnc(C)nc3)ccc21)C(=O)Nc1cccc(Br)n1` [Compound 599] the IC50 was greater than 10 µM.
For `CC[C@H](NC(=O)Cn1nc(C(C)=O)c2cc(-c3cnc(C)nc3)ccc21)C(=O)Nc1cccc(Br)n1` [Compound 600], the IC50 was less than 1 µM.
`CC(=O)c1nn(CC(=O)N2C[C@H](F)C[C@H]2C(=O)NCC#N)c2ccc(-c3cnc(C)nc3)cc12` [Compound 601] gave an IC50 of less than 1 µM.
`Cc1cccc(NC(=O)[C@@H]2CCC(F)CCN2C(=O)Cn2cc(C(N)=O)c3cc(-c4ccc5cccnc5c4)ccc32)n1` (stereo partly drawn) [Compound 602, 1-(2-((2S)-5-Fluoro-2-((6-methylpyridin-2-yl)carbamoyl)azepan-1-yl)-2-oxoethyl)-5-(quinolin-7-yl)-1H-indole-3-carboxamide] was tested, and the IC50 was greater than 10 µM.
Compound `CC(=O)c1nn(CC(=O)N2C[C@H](F)C[C@H]2CS(=O)(=O)c2cccc(Br)n2)c2ccc(-c3cnc(C)nc3)cc12` [Compound 603, 2-(3-Acetyl-5-(2-methylpyrimidin-5-yl)-1H-indazol-1-yl)-1-((2S,4R)-2-(((6-bromopyridin-2-yl)sulfonyl)methyl)-4-fluoropyrrolidin-1-yl)ethan-1-one] has an IC50 greater than 10 µM.
With `CC(=O)c1nn(CC(=O)N2C[C@H](F)C[C@H]2C[S+]([O-])c2cccc(Br)n2)c2ccc(-c3cnc(C)nc3)cc12` (stereo partly drawn) [Compound 604, 2-(3-Acetyl-5-(2-methylpyrimidin-5-yl)-1H-indazol-1-yl)-1-((2S,4R)-2-(((6-bromopyridin-2-yl)sulfinyl)methyl)-4-fluoropyrrolidin-1-yl)ethan-1-one] the IC50 was 1 to 10 µM.
`CC(=O)c1nn(CC(=O)N2C[C@H]3C[C@H]3[C@H]2C(=O)Nc2ccn(CC(F)(F)F)n2)c2ccc(-c3cnc(C)nc3)cc12` [Compound 606, (1R,2S,5S)-3-(2-(3-acetyl-5-(2-methylpyrimidin-5-yl)-1H-indazol-1-yl)acetyl)-N-(1-(2,2,2-trifluoroethyl)-1H-pyrazol-3-yl)-3-azabicyclo[3.1.0]hex-ane-2-carboxamide] was tested, and the IC50 was less than 1 µM.
For `Cc1cccc(C[C@@H](O)[C@H]2C[C@@H](F)CN2C(=O)Cn2cc(C(N)=O)c3cc(-c4cnc5cc(C)nn5c4)ccc32)n1` [Compound 611, 1-(2-((2R,4R)-4-Fluoro-2-((R)-1-hydroxy-2-(6-methylpyridin-2-yl)ethyl)pyrrolidin-1-yl)-2-oxoethyl)-5-(2-methylpyrazolo [1,5-a]pyrimidin-6-yl)-1H-indole-3-carboxamide], the IC50 was greater than 10 µM.
Work on `Cc1cccc(NC(=O)[C@@H]2CC=CCN2C(=O)Cn2cc(C(N)=O)c3cc(-c4cnc5cc(C)nn5c4)ccc32)n1` [Compound 612, (S)-5-(2-Methylpyrazolo[1,5-a]pyrimidin-6-yl)-1-(2-(2-((6-methylpyridin-2-yl)carbamoyl)-3,6-dihydropyridin-1 (2H)-yl)-2-oxoethyl)-1H-indole-3-carboxamide] yielded an IC50 greater than 10 µM.
With `Cc1cccc(NC(=O)[C@@H]2CCC(F)CCN2C(=O)Cn2cc(C(N)=O)c3cc(-c4cnc5cc(C)nn5c4)ccc32)n1` (stereo partly drawn) [Compound 614, 1-(2-((2S)-5-Fluoro-2-((6-methylpyridin-2-yl)carbamoyl)azepan-1-yl)-2-oxoethyl)-5-(2-methylpyrazolo[1,5-a]pyrimidin-6-yl)-1H-indole-3-carboxamide] the IC50 was greater than 10 µM.
For `Cc1cccc(NC(=O)[C@@H]2CCC(F)CCN2C(=O)Cn2cc(C(N)=O)c3cc(-c4cnc5ncccn45)ccc32)n1` (stereo partly drawn) [Compound 615, 1-(2-((2S)-5-Fluoro-2-((6-methylpyridin-2-yl)carbamoyl)azepan-1-yl)-2-oxoethyl)-5-(imidazo[1,2-a]pyrimidin-3-yl)-1H-indole-3-carboxamide], the IC50 was greater than 10 µM.
For `Cc1cccc(NC(=O)[C@@H]2CCC(F)CCN2C(=O)Cn2cc(C(N)=O)c3cc(-c4cnc5n4CCCC5)ccc32)n1` (stereo partly drawn) [Compound 616, 1-(2-((2S)-5-Fluoro-2-((6-methylpyridin-2-yl)carbamoyl)azepan-1-yl)-2-oxoethyl)-5-(5,6,7,8-tetrahydroimidazo[1,2-a]pyridin-3-yl)-1H-indole-3-carboxamide], the IC50 was greater than 10 µM.
`Cc1cccc(NC(=O)[C@@H]2CCC(F)CCN2C(=O)Cn2cc(C(N)=O)c3cc(-c4cnn5c4CCC5)ccc32)n1` (stereo partly drawn) [Compound 617, 5-(5,6-Dihydro-4H-pyrrolo[1,2-b]pyrazol-3-yl)-1-(2-((2S)-5-fluoro-2-((6-methylpyridin-2-yl)carbamoyl)azepan-1-yl)-2-oxoethyl)-1H-indole-3-carboxamide] gave an IC50 greater than 10 µM.
`CC(=O)c1nn(CC(=O)N2C[C@H](F)C[C@H]2C(=O)Nc2cccc(Br)n2)c2ccc(N3CCn4c(nnc4C(F)(F)F)C3)cc12` [Compound 618, (2S,4R)-1-(2-(3-acetyl-5-(3-(trifluoromethyl)-5,6-dihydro-[1,2,4]triazolo[4,3-a]pyrazin-7(8H)-yl)-1H-indazol-1-yl)acetyl)-N-(6-bromopyridin-2-yl)-4-fluoropyrrolidine-2-carboxamide] showed an IC50 of less than 1 µM.
